US9980943B2, “Methods of treating muscular dystrophy” (BOARD OF REGENTS OF THE NEVADA SYSTEM OF HIGHER EDUCATION, …, priority 2013, dated 2018)

Tests used:
Assay type in all cases: cell-based, mouse
[1] = tested on: β-galactosidase in CMV-LacZ C2C12 myotubes; experiment: CMV-LacZ secondary screen in C2C12 myotubes (β-Gal stabilizing assay); conditions: C2C12 CMV-LacZ myotubes, fold relative to DMSO
How it was run: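 A secondary screen identifies compounds that stabilize β-gal independently of the native promoter, using CMV-LacZ C2C12 cells. Curves span 0.5–40 μM at six levels, in duplicate.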

[2] = tested on: α7 integrin (LacZ reporter in α7+/LacZ myotubes); experiment: Myotube α7 integrin FDG assay (Burkin assay in myotubes, 96-well); conditions: myotubes
[3] = tested on: α7 integrin (LacZ reporter in α7βgal+/− myoblasts); experiment: Myoblast α7+/LacZ integrin FDG assay (Burkin assay in myoblasts, 96-well); conditions: α7+/LacZ myoblasts, 96-well
[4] = tested on: β-galactosidase in CMV-LacZ C2C12 myoblasts; experiment: CMV-LacZ secondary screen in C2C12 myoblasts (β-Gal stabilizing assay); conditions: CMV-LacZ C2C12 myoblasts
How it was run: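 CMV-LacZ C2C12 line (clonal, FDG-screened); myoblasts/myotubes dosed 0.5–40 μM (0.5, 1, 5, 10, 20, 40 μM); n=2 per point; β-gal stabilization read-out.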

| Compound | CMV-LACZ in Myotubes, signal relative to DMSO ([1]; 0.5 uM) | CMV-LACZ in Myotubes, signal relative to DMSO ([1]; 1 uM) | CMV-LACZ in Myotubes, signal relative to DMSO ([1]; 5 uM) | CMV-LACZ in Myotubes, signal relative to DMSO ([1]; 10 uM) | CMV-LACZ in Myotubes, signal relative to DMSO ([1]; 20 uM) | CMV-LACZ in Myotubes, signal relative to DMSO ([1]; 40 uM) | Burkin Assay in Myotubes, α7 integrin LacZ reporter signal relative to DMSO ([2]; 0.5 uM) | Burkin Assay in Myotubes, α7 integrin LacZ reporter signal relative to DMSO ([2]; 1 uM) | Burkin Assay in Myotubes, α7 integrin LacZ reporter signal relative to DMSO ([2]; 5 uM) | Burkin Assay in Myotubes, α7 integrin LacZ reporter signal relative to DMSO ([2]; 10 uM) | Burkin Assay in Myotubes, α7 integrin LacZ reporter signal relative to DMSO ([2]; 20 uM) | Burkin Assay in Myotubes, α7 integrin LacZ reporter signal relative to DMSO ([2]; 40 uM) | Burkin Assay in Myoblasts, signal relative to DMSO ([3]; 0.5 uM) | Burkin Assay in Myoblasts, signal relative to DMSO ([3]; 1 uM) | Burkin Assay in Myoblasts, signal relative to DMSO ([3]; 5 uM) | Burkin Assay in Myoblasts, signal relative to DMSO ([3]; 10 uM) | Burkin Assay in Myoblasts, signal relative to DMSO ([3]; 20 uM) | Burkin Assay in Myoblasts, signal relative to DMSO ([3]; 40 uM) | CMV-LACZ in Myoblasts (β-galactosidase activity relative to DMSO) ([4]; 0.5 uM) | CMV-LACZ in Myoblasts (β-galactosidase activity relative to DMSO) ([4]; 1 uM) | also measured |
| --- | --- | --- | --- | --- | --- | --- | --- | --- | --- | --- | --- | --- | --- | --- | --- | --- | --- | --- | --- | --- | --- |
| O=C(c1ccccc1)N1CCN(S(=O)(=O)c2cccs2)CC1 [MLS001035690-01] | 1.0474 | 0.8644 | 1.1552 | 1.1317 | 1.1976 | 1.0976 | 1.111 | 1.072 | 1.073 | 0.9358 | 0.972 | 0.9238 | 1.051 | 1.151 | 1.186 | 0.9872 | 1.055 | 1.091 | 0.9819 | 1.0406 | CMV-LACZ in Myoblasts (β-galactosidase activity relative to DMSO) ([4]; 5 uM): 0.9910; CMV-LACZ in Myoblasts (β-galactosidase activity relative to DMSO) ([4]; 10 uM): 1.2020; CMV-LACZ in Myoblasts (β-galactosidase activity relative to DMSO) ([4]; 20 uM): 1.3585; CMV-LACZ in Myoblasts (β-galactosidase activity relative to DMSO) ([4]; 40 uM): 0.9178 |
| Cc1noc(C)c1COc1ccc(C(=O)NCCc2ccccn2)cc1 [MLS001061374-01] | 1.2568 | 1.1000 | 1.1237 | 0.8498 | 1.1689 | 1.0489 | 1.058 | 1.092 | 1.004 | 1.181 | 0.732 | 0.8155 | 0.8477 | 0.8448 | 0.9826 | 1.169 | 0.873 | 0.6774 | 0.7117 | 1.1702 | CMV-LACZ in Myoblasts (β-galactosidase activity relative to DMSO) ([4]; 5 uM): 1.0601; CMV-LACZ in Myoblasts (β-galactosidase activity relative to DMSO) ([4]; 10 uM): 0.9793; CMV-LACZ in Myoblasts (β-galactosidase activity relative to DMSO) ([4]; 20 uM): 0.9744; CMV-LACZ in Myoblasts (β-galactosidase activity relative to DMSO) ([4]; 40 uM): 1.1037 |
| CC1(C)Cc2c(c(N3CCOCC3)nc3sc(C(=O)Nc4ccccc4)c(N)c23)CO1 [MLS001075922-01] | 1.0222 | 1.0533 | 1.2947 | 1.2173 | 1.0282 | 0.8388 | 1.292 | 1.143 | 0.6556 | 0.629 | 1.067 | 0.8243 | 1.2085 | 1.292 | 0.6039 | 0.2869 | 0.5678 | 0.6464 | 0.9434 | 1.3028 | CMV-LACZ in Myoblasts (β-galactosidase activity relative to DMSO) ([4]; 5 uM): 1.6332; CMV-LACZ in Myoblasts (β-galactosidase activity relative to DMSO) ([4]; 10 uM): 1.2361; CMV-LACZ in Myoblasts (β-galactosidase activity relative to DMSO) ([4]; 20 uM): 0.9881; CMV-LACZ in Myoblasts (β-galactosidase activity relative to DMSO) ([4]; 40 uM): 1.3037 |
